Reference: patent publication US9518015B2, “EP1 receptor ligands” (LABORATORIOS DEL DR. ESTEVE, S.A., priority 2011, dated 2016)
Where a name gives a salt, the structure may show the parent alone.

Columns and labels:
human EP1 receptor [1] = target: T1, human EP1 receptor (Homo sapiens, UniProt P34995); test: Test 3: Measurement of IP1 responses by HTRF, HEK-293 cells stably expressing human EP1 receptors incubated o/n, PGE2 10 nM; type: cell-based; parameters: expressed in transfected cells; settings: for inhibition at 10 µM: HEK293, read-out: Results of Test 3 (Functional assay), % inh
T1 sequence (P34995 1-402): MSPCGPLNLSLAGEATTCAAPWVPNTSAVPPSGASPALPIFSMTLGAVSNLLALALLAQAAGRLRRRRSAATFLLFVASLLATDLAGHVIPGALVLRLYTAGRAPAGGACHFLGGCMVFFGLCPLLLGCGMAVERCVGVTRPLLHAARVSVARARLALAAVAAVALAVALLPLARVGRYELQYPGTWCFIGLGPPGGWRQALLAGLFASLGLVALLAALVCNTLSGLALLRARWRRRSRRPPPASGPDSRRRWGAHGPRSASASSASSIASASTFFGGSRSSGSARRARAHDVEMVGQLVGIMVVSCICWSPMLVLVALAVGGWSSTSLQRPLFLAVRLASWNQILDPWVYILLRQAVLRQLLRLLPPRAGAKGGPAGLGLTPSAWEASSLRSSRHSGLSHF
Description: Test 3: Measurement of IP1 Responses by Homogeneous Time Resolved Fluorescence
IP1 measurements on HEK-293 cells that stably expressed human EP1 receptors were performed by using a system based on Homogeneous Time Resolved Fluorescense (HTRF) (Gabriel et al., 2003). This technology allows the direct measurement of IP1 in living cells. The principle of this assay is based on competition between IP1 produced by cells and IP1-d2 conjugate for the binding with monoclonal anti-IP1-cryptate conjugate. The HTRF IP1 kit from CisBio was used according to the manufacturer's directions. The experimental procedure was performed as stated below.
40,000 cells per well were added to 96-well culture plates in 40 μl of Optimem and incubated o/n at 37° C. Optimem was replaced by 40 μl of stimulation buffer (supplied by the kit) and compounds were then added in 20 μl of stimulation buffer and incubated at 37° C. for 15 minutes followed by 10 μl of PGE2 to a final concentration of 10 nM. After 90 minutes at 37° C., the reaction was stopped lysing the cells with a mixture of 15 μl of cryptate and 15 μl of IP1-d2 prepared in the lysis buffer supplied by the manufacturer. Plates were incubated for an additional hour at room temperature and read at 665 nm/620 nm using an UltraEvolution Plate reader (Tecan).
Antagonist percentage inhibition was calculated relating compounds activity to the 0% inhibition of the wells incubated with 10 nM PGE2 alone and 100% inhibition of the wells incubated with 10 nM PGE2 plus 10 μM of the reference antagonist.

human EP1 receptor [2] = target: T1, human EP1 receptor; test: Test 1: Human EP1 receptor radioligand binding assay ([3H]-PGE2, transfected HEK-293 cell membranes); parameters: expressed in transfected cells; host or cells: HEK-293 cell membranes; settings: for inhibition at 10 µM: read-out: Results of Test 1 (Binding assay), % inh
Description: Test 1: Human EP1 Receptor Radioligand Binding Assay
To investigate binding properties of EP1 receptor ligands to human EP1 receptor, transfected HEK-293 cell membranes and [3H]-PGE2 (Perkin Elmer) were used. In 96-well plates the assay was carried out with a total reaction volume of 250 μl, containing 25 μl of membrane suspension (30 μg protein/well), 25 μl of [3H]-PGE2 (10 nM) in either absence or presence of 25 μl of either buffer or PGE2 (10 μM) for total and non-specific binding, respectively. Binding buffer contained 10 mM MES, 1 mM MgCl2 and 1 mM EDTA at pH 6.0. Plates were incubated at 25° C. for 60 minutes. After the incubation period, 200 μl of incubate were transferred to MultiScreen HTS, FB plates (Millipore), filtered and plates were washed 6 times with ice-cold 10 mM MES, 1 mM MgCl2 and 1 mM EDTA at pH 6.0. Filters were dried and counted in a MicroBeta scintillation counter (Perkin-Elmer) using EcoScint liquid scintillation cocktail.
Percentage inhibition was calculated relating compounds activity to the 0% inhibition of the wells incubated with 10 nM [3H]-PGE2 alone (total binding) and 100% inhibition of the wells incubated with 10 nM [3H]-PGE2 plus 10 μM PGE2 (non-specific binding).

human EP1 receptor [3] = target: T1, human EP1 receptor; test: Test 2: Measurement of IP1 responses by HTRF, suspended HEK-293 cells stably expressing human EP1 receptors, PGE2 30 nM; type: cell-based; parameters: expressed in transfected cells; settings: HEK293, at 10 μM, read-out: Results of Test 2 (Functional assay), % inh
Outline: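 Suspended cells preincubated with compound for 15 min at 37 °C, then stimulated with 30 nM PGE2 for 90 min at 37 °C. IP1 quantified by competitive HTRF (665/620 nm) after lysis. Percent inhibition scaled between PGE2 alone (0%) and PGE2 plus 1 μM reference antagonist (100%).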

SMILES: CC(C)(F)COc1ccc(Cl)cc1CN1CCCc2c(C(=O)O)cncc21 [Example 242]
- inhibition at 10 µM (human EP1 receptor [1]): > 75%
- inhibition at 10 µM (human EP1 receptor [2]): > 75%

SMILES: O=C(O)c1cncc2c1CCN2Cc1cc(Cl)ccc1OCc1ccc(Cl)cc1F [Example 248, sodium 1-{5-chloro-2-[(4-chloro-2-fluorobenzyl)oxy]benzyl}-2,3-dihydro-1H-pyrrolo[2,3-c]pyridine-4-carboxylate]
- inhibition at 10 µM (human EP1 receptor [1]): > 75%
- inhibition at 10 µM (human EP1 receptor [2]): > 75%

SMILES: O=C(O)c1cccc2c1OCCN2Cc1ccccc1OCc1ccc(F)cc1F [Example 122]
- inhibition at 10 µM (human EP1 receptor [1]): > 75%
- inhibition at 10 µM (human EP1 receptor [2]): > 75%

SMILES: CN(C)S(=O)(=O)NC(=O)c1cccc2c1CCCN2Cc1cc(Cl)ccc1OCc1ccc(Cl)cc1F [Example 237, 1-{5-chloro-2-[(4-chloro-2-fluorobenzyl)oxy]benzyl}-N-[(dimethylamino)sulfonyl]-1,2,3,4-tetrahydroquinoline-5-carboxamide sodium salt]
- inhibition at 10 µM (human EP1 receptor [1]): 45 to 75%
- inhibition at 10 µM (human EP1 receptor [2]): > 75%

SMILES: O=C(O)c1cccc2c1c(CO)cn2Cc1cc(F)ccc1OCc1ccc(F)cc1 [Example 149]
- inhibition at 10 µM (human EP1 receptor [1]): > 75%
- inhibition at 10 µM (human EP1 receptor [2]): > 75%

SMILES: O=C([O-])c1ccnc2c1CCN2Cc1cc(Cl)ccc1OCc1ccc(F)cc1F.[Na+] [Example 217]
- Results of Test 3 (Functional assay), % inh (human EP1 receptor [1]; at 10 μM): $ (% inh > 75)
- Results of Test 1 (Binding assay), % inh (human EP1 receptor [2]; at 10 μM): # (% inh > 75)

SMILES: O=C(O)c1ccnc2c1c(CO)cn2Cc1cc(Cl)ccc1OCc1ccc(F)cc1F [Example 152]
- inhibition at 10 µM (human EP1 receptor [1]): > 75%
- inhibition at 10 µM (human EP1 receptor [2]): > 75%

SMILES: O=C(O)c1cccc2c1OCCN2Cc1cc(Cl)ccc1OCc1ccc(Cl)cc1F [Example 117]
- inhibition at 10 µM (human EP1 receptor [1]): > 75%
- inhibition at 10 µM (human EP1 receptor [2]): > 75%

SMILES: O=C(O)c1cccc2c1OCCN2Cc1cc(Cl)ccc1OC1CCC1 [Example 197]
- inhibition at 10 µM (human EP1 receptor [1]): > 75%
- inhibition at 10 µM (human EP1 receptor [2]): > 75%

SMILES: O=C(O)c1cccc2c1OCCN2Cc1ccccc1OCc1ccc(Cl)cc1F [Example 119]
- inhibition at 10 µM (human EP1 receptor [1]): > 75%
- inhibition at 10 µM (human EP1 receptor [2]): > 75%

SMILES: CC(C)(F)COc1ccc(Cl)cc1CN1CCc2c(C(=O)O)cccc21 [Example 166]
- inhibition at 10 µM (human EP1 receptor [1]): > 75%
- inhibition at 10 µM (human EP1 receptor [2]): > 75%

SMILES: O=C(O)c1cccc2c1c(CO)nn2Cc1cc(Cl)ccc1OCc1ccc(Cl)cc1F [Example 188, sodium 1-(5-chloro-2-((4-chloro-2-fluorobenzyl)oxy)benzyl)-3-(hydroxymethyl)-1H-indazole-4-carboxylate]
- inhibition at 10 µM (human EP1 receptor [1]): > 75%
- inhibition at 10 µM (human EP1 receptor [2]): > 75%

SMILES: O=C(O)c1cccc2c1ccn2Cc1cc(Br)ccc1OCc1ccc(F)c(Br)c1 [Example 25, 1-(5-bromo-2-((3-bromo-4-fluorobenzyl)oxy)benzyl)-1H-indole-4-carboxylic acid]
- inhibition at 10 µM (human EP1 receptor [3]): > 75%
- inhibition at 10 µM (human EP1 receptor [2]): 45 to 75%

SMILES: O=C(O)c1cccc2c1ccn2Cc1cc(Cl)ccc1OCc1ccc(C(F)(F)F)cc1C(F)(F)F [Example 14]
- inhibition at 10 µM (human EP1 receptor [3]): > 75%
- inhibition at 10 µM (human EP1 receptor [2]): > 75%

SMILES: O=C(O)c1cccc2c1ccn2Cc1cc(Cl)ccc1OCc1c(F)c(F)cc(F)c1F [Example 13, 1-(5-chloro-2-((2,3,5,6-tetrafluorobenzyl)oxy)benzyl)-1H-indole-4-carboxylic acid]
- inhibition at 10 µM (human EP1 receptor [3]): > 75%
- inhibition at 10 µM (human EP1 receptor [2]): 45 to 75%

SMILES: O=C(O)c1cccc2c1ccn2Cc1cc(Br)ccc1OCc1ccc(Br)cc1F [Example 55, 1-(5-bromo-2-((4-bromo-2-fluorobenzyl)oxy)benzyl)-1H-indole-4-carboxylic acid]
- inhibition at 10 µM (human EP1 receptor [3]): > 75%
- inhibition at 10 µM (human EP1 receptor [2]): > 75%

SMILES: O=C(O)c1ncnc2c1ccn2Cc1cc(Cl)ccc1OCc1ccc(F)cc1F [Example 99]
- inhibition at 10 µM (human EP1 receptor [3]): > 75%
- inhibition at 10 µM (human EP1 receptor [2]): > 75%

SMILES: O=C(O)c1cccc2c1ccn2Cc1cc(Cl)ccc1OCc1ccc(F)cc1Cl [Example 12, 1-(5-chloro-2-((2-chloro-4-fluorobenzyl)oxy)benzyl)-1H-indole-4-carboxylic acid]
- inhibition at 10 µM (human EP1 receptor [3]): > 75%
- inhibition at 10 µM (human EP1 receptor [2]): > 75%

SMILES: O=C(O)c1cccc2c1ccn2Cc1cc(F)ccc1OCc1ccc(F)cc1Cl [Example 19, 1-(2-((2-chloro-4-fluorobenzyl)oxy)-5-fluorobenzyl)-1H-indole-4-carboxylic acid]
- inhibition at 10 µM (human EP1 receptor [3]): > 75%
- inhibition at 10 µM (human EP1 receptor [2]): 45 to 75%

SMILES: O=C(O)c1cccc2c1ccn2Cc1cc(F)ccc1OCc1cc(F)c(F)c(F)c1 [Example 34, 1-(5-fluoro-2-((3,4,5-trifluorobenzyl)oxy)benzyl)-1H-indole-4-carboxylic acid]
- inhibition at 10 µM (human EP1 receptor [3]): > 75%
- inhibition at 10 µM (human EP1 receptor [2]): 45 to 75%

SMILES: O=C(O)c1ccc2c(ccn2Cc2cc(F)ccc2OCc2ccc(F)c(Br)c2)c1 [Example 68, 1-(2-((3-bromo-4-fluorobenzyl)oxy)-5-fluorobenzyl)-1H-indole-5-carboxylic acid]
- inhibition at 10 µM (human EP1 receptor [3]): > 75%
- inhibition at 10 µM (human EP1 receptor [2]): 45 to 75%

SMILES: O=C(O)c1ccc2c(ccn2Cc2cc(Br)ccc2OCc2ccc(F)cc2C(F)(F)F)c1 [Example 69]
- inhibition at 10 µM (human EP1 receptor [3]): > 75%
- inhibition at 10 µM (human EP1 receptor [2]): 45 to 75%

SMILES: O=C(O)c1ccc2c(ccn2Cc2cc(C(F)(F)F)ccc2OCc2ccc(Br)cc2F)c1 [Example 75, 1-(2-((4-bromo-2-fluorobenzyl)oxy)-5-(trifluoromethyl)benzyl)-1H-indole-5-carboxylic acid]
- inhibition at 10 µM (human EP1 receptor [3]): > 75%
- inhibition at 10 µM (human EP1 receptor [2]): 45 to 75%

SMILES: O=C(O)c1cccc2c1ccn2Cc1cc(Cl)ccc1OCc1cc(F)ccc1F [Example 29, 1-(5-chloro-2-((2,5-difluorobenzyl)oxy)benzyl)-1H-indole-4-carboxylic acid]
- inhibition at 10 µM (human EP1 receptor [3]): > 75%
- inhibition at 10 µM (human EP1 receptor [2]): > 75%

SMILES: O=C(O)c1cccc2c1ccn2Cc1cc(F)ccc1OCc1c(F)cccc1F [Example 33, 1-(2-((2,6-difluorobenzyl)oxy)-5-fluorobenzyl)-1H-indole-4-carboxylic acid]
- inhibition at 10 µM (human EP1 receptor [3]): > 75%
- inhibition at 10 µM (human EP1 receptor [2]): 45 to 75%

SMILES: O=C(O)c1cccc2c1ccn2Cc1cc(Cl)ccc1OCc1ccccc1F [Example 45, 1-(5-chloro-2-((2-fluorobenzyl)oxy)benzyl)-1H-indole-4-carboxylic acid]
- inhibition at 10 µM (human EP1 receptor [3]): > 75%
- inhibition at 10 µM (human EP1 receptor [2]): > 75%

SMILES: O=C(O)c1cccc2c1ccn2Cc1ccccc1OCc1ccc(F)cc1F [Example 54, 1-(2-((2,4-difluorobenzyl)oxy)benzyl)-1H-indole-4-carboxylic acid]
- inhibition at 10 µM (human EP1 receptor [3]): > 75%
- inhibition at 10 µM (human EP1 receptor [2]): 45 to 75%

SMILES: O=C(O)c1cccc2c1ccn2Cc1cc(Cl)ccc1OCc1ccc(C(F)(F)F)cc1F [Example 47, 1-(5-chloro-2-((2-fluoro-4-(trifluoromethyl)benzyl)oxy)benzyl)-1H-indole-4-carboxylic acid]
- inhibition at 10 µM (human EP1 receptor [3]): > 75%
- inhibition at 10 µM (human EP1 receptor [2]): > 75%

SMILES: O=C(O)c1cccc2c1ccn2Cc1cc(C(F)(F)F)ccc1OCc1ccc(F)cc1F [Example 51, 1-(2-((2,4-difluorobenzyl)oxy)-5-(trifluoromethyl)benzyl)-1H-indole-4-carboxylic acid]
- inhibition at 10 µM (human EP1 receptor [3]): > 75%
- inhibition at 10 µM (human EP1 receptor [2]): 45 to 75%

SMILES: O=C(O)c1cccc2c1ccn2Cc1cc(F)ccc1OCc1ccc(F)c(Br)c1 [Example 24, 1-(2-((3-bromo-4-fluorobenzyl)oxy)-5-fluorobenzyl)-1H-indole-4-carboxylic acid]
- inhibition at 10 µM (human EP1 receptor [3]): > 75%
- inhibition at 10 µM (human EP1 receptor [2]): 45 to 75%
